The term IC50 denotes the midpoint of a concentration-inhibition curve. By inhibition in vivo is commonly meant the relative decrease from the control value, in per cent.

Consider 30 molecules from ChEMBL document CHEMBL1649404, “Synthesis and biological evaluation of new 4β-anilino-4'-O-demethyl-4-desoxypodophyllotoxin derivatives as potential antitumor agents” (Eur J Med Chem, 2011).

The test system of one data set is KB. The data set can be described thus: Cytotoxicity against human KB cells after 72 hrs by MTT assay. The data set is classed as functional, cell-based.
A short description of data set [1]: Cytotoxicity against human 95-D cells after 72 hrs by MTT assay. The data set is classed as functional, cell-based. (Tetrazolium dyes change colour on reduction, which living cells bring about.)
Data set [2] in a line: Cytotoxicity against human KB/VCR cells after 72 hrs by MTT assay. The data set is classed as functional, cell-based.
Another data set has as its system A549. Nature of the data set: Cytotoxicity against human A549 cells after 72 hrs by MTT assay. It counts as functional, cell-based. The conditions noted are these: A549, 72 h.
The subject of a further data set is Mus musculus. The data set can be described thus: Toxicity in BALB/c mouse xenografted with human 95-D cells assessed as body weight at 10 mg/kg administered intramuscularly every other day for 20 days measured post last dose (reference value: 21.6 +/- 0.6 gm). It counts as organism-based. Further details: dose 10 mg/kg, route intramuscular. Conditions: in vivo, im, 480 h.

Data set [3] can be described thus: Anticancer activity against human 95-D cells xenografted in BALB/c mouse at 10 mg/kg administered intramuscularly every other day for 20 days measured post last dose relative to control. The data set is classed as functional. Conditions: route intramuscular.
The nature of data set [4]: Anticancer activity against human 95-D cells xenografted in BALB/c mouse assessed as inhibition of tumor growth at 10 mg/kg administered intramuscularly every other day for 20 days measured post last dose. The data set is classed as functional. Conditions: im, 480 h, route intramuscular. A general note: A xenograft is tissue or cells of one species grown in another, often human tumour cells in immunodeficient mice.

For `COc1cc([C@@H]2c3cc4c(cc3[C@@H](Nc3ccc(NC(=O)CCc5ccccc5[N+](=O)[O-])cc3)[C@H]3COC(=O)[C@H]23)OCO4)cc(OC)c1O`, the IC50 with KB was determined as 6690 nM; in data set [1], 0.41 µM; in data set [2] it was 5.3 µM; with A549, 8.43 µM.
Take `COc1cc([C@@H]2c3cc4c(cc3[C@@H](Nc3ccc(NC(=O)c5ccc(Br)cc5)cc3)[C@H]3COC(=O)[C@H]23)OCO4)cc(OC)c1O`: the IC50 came to 8750 nM with KB, 1.66 µM in data set [1], 5.72 µM in data set [2] and 18.9 µM with A549.
As for `COc1cc([C@@H]2c3cc4c(cc3[C@@H](Nc3cccc(CCN5CCCCC5)c3)[C@H]3COC(=O)[C@H]23)OCO4)cc(OC)c1O`, the half-inhibitory concentration (IC50) in the data set on KB is 430 nM; in data set [1] it was 7.4 µM; in data set [2], 1.78 µM; with A549 it was 2.75 µM.
As for `COc1cc([C@@H]2c3cc4c(cc3[C@@H](Nc3ccc(COCCO)cc3)[C@H]3COC(=O)[C@H]23)OCO4)cc(OC)c1O`, the IC50 in the data set on KB amounted to 3120 nM; in data set [1], 0.55 µM; in data set [2], 7.39 µM; in the data set on A549 it was 5.11 µM.
Take `COc1cc([C@@H]2c3cc4c(cc3[C@@H](Nc3ccc(COCCCCO)cc3)[C@H]3COC(=O)[C@H]23)OCO4)cc(OC)c1O`: the IC50 was found to be 6600 nM with KB, 20.3 µM in data set [1], 9.55 µM in data set [2] and 8.5 µM in the data set on A549.
For `COc1cc([C@@H]2c3cc4c(cc3[C@@H](Nc3ccc(CCN5CCOCC5)cc3)[C@H]3COC(=O)[C@H]23)OCO4)cc(OC)c1O` the same measures were 780 nM, 11.5 µM, 1.27 µM and 1.94 µM.
Take `COc1cc([C@@H]2c3cc4c(cc3[C@@H](Nc3ccc(CCN(C(C)C)C(C)C)cc3)[C@H]3COC(=O)[C@H]23)OCO4)cc(OC)c1O`: the IC50 worked out at 440 nM with KB, 10 µM in data set [1], 2.2 µM in data set [2] and 0.49 µM with A549.
Regarding `COc1cc([C@@H]2c3cc4c(cc3[C@@H](Nc3cccc(CN5CCCCC5)c3)[C@H]3COC(=O)[C@H]23)OCO4)cc(OC)c1O`, the IC50 in the data set on KB turned out to be 970 nM; in data set [1] it was 0.2 µM; in data set [2], 3.44 µM; in the data set on A549 it was 0.5 µM.
With `CCN(CC)CCc1ccc(N[C@@H]2c3cc4c(cc3[C@@H](c3cc(OC)c(O)c(OC)c3)[C@H]3C(=O)OC[C@@H]32)OCO4)cc1`, the IC50 is 450 nM in the data set with KB, 9.84 µM in data set [1], 1.53 µM in data set [2] and 0.4 µM in the data set with A549.
Take `COc1cc([C@@H]2c3cc4c(cc3[C@@H](Nc3ccc(CCN5CCCCC5)cc3)[C@H]3COC(=O)[C@H]23)OCO4)cc(OC)c1O`: the IC50 with KB amounted to 4210 nM; in data set [1], 17.2 µM; in data set [2] it was 19.1 µM; in the data set on A549, 13.4 µM.
Taken in the same sequence, the figures for `CCN(CC)C(=O)Cc1cccc(N[C@@H]2c3cc4c(cc3[C@@H](c3cc(OC)c(O)c(OC)c3)[C@H]3C(=O)OC[C@@H]32)OCO4)c1` were 420 nM, above 50 µM, 27.2 µM and 4.78 µM.
On to `COc1cc([C@@H]2c3cc4c(cc3[C@@H](Nc3ccc(OCCO)cc3)[C@H]3COC(=O)[C@H]23)OCO4)cc(OC)c1O`, for which the Activity is given as 17 g with Mus musculus and 45.4% in data set [3]. Moreover, the IC50 in the data set with KB was 2880 nM; in data set [1], 4.13 µM; in data set [2], 6.51 µM; with A549, 4.54 µM. Besides, in data set [4], the inhibition in vivo at 10 mg/kg is 37.5%.
Consider `COc1cc([C@@H]2c3cc4c(cc3[C@@H](Nc3ccc(NC(=O)/C=C/c5ccccc5)cc3)[C@H]3COC(=O)[C@H]23)OCO4)cc(OC)c1O`, for which the IC50 in the data set on KB was 6530 nM; in data set [1], 1.25 µM; in data set [2], 2.8 µM; in the data set with A549, above 50 µM.
On to `COc1cc([C@@H]2c3cc4c(cc3[C@@H](Nc3ccc(NC(=O)c5ccc(Cl)cc5)cc3)[C@H]3COC(=O)[C@H]23)OCO4)cc(OC)c1O`, for which the IC50 turned out to be 22100 nM with KB, 6.56 µM in data set [1], 13.1 µM in data set [2] and 19.5 µM with A549.
Take `COc1ccc(CCC(=O)Nc2ccc(N[C@@H]3c4cc5c(cc4[C@@H](c4cc(OC)c(O)c(OC)c4)[C@H]4C(=O)OC[C@@H]43)OCO5)cc2)cc1`: the IC50 was above 50000 nM with KB, 1.23 µM in data set [1], 3.08 µM in data set [2] and above 50 µM in the data set with A549.
Turning to `CCN(CC)CCc1cccc(N[C@@H]2c3cc4c(cc3[C@@H](c3cc(OC)c(O)c(OC)c3)[C@H]3C(=O)OC[C@@H]32)OCO4)c1`, the IC50 in the data set with KB is 770 nM; in data set [1] it was 14.6 µM; in data set [2] it was 3.87 µM; with A549, 7.49 µM.
For `COc1cc([C@@H]2c3cc4c(cc3[C@@H](Nc3ccc(CC(=O)N5CCCC5)cc3)[C@H]3COC(=O)[C@H]23)OCO4)cc(OC)c1O` the same measures were 1520 nM, above 50 µM, 2.2 µM and 15.9 µM.
As to `COc1cc([C@@H]2c3cc4c(cc3[C@@H](Nc3ccc(CCN(C)C)cc3)[C@H]3COC(=O)[C@H]23)OCO4)cc(OC)c1O`, the IC50 in the data set with KB amounted to 2420 nM; in data set [1], 17.1 µM; in data set [2] it was 3.95 µM; in the data set with A549, 19 µM.
As for `COc1cc([C@@H]2c3cc4c(cc3[C@@H](Nc3ccc(NC(=O)c5ccc(F)cc5)cc3)[C@H]3COC(=O)[C@H]23)OCO4)cc(OC)c1O`, the IC50 in the data set with KB came to 2910 nM; in data set [1] it was 1.08 µM; in data set [2], 5.31 µM; with A549, 1.56 µM.
Take `COc1cc([C@@H]2c3cc4c(cc3[C@@H](Nc3cccc(CCN5CCOCC5)c3)[C@H]3COC(=O)[C@H]23)OCO4)cc(OC)c1O`: the IC50 with KB came to 480 nM; in data set [1] it was 14.8 µM; in data set [2] it was 2.09 µM; in the data set with A549, 5.1 µM.
Taken in the same sequence, the figures for `COc1ccc(C(=O)Nc2ccc(N[C@@H]3c4cc5c(cc4[C@@H](c4cc(OC)c(O)c(OC)c4)[C@H]4C(=O)OC[C@@H]43)OCO5)cc2)cc1` were 6760 nM, 0.44 µM, 9.28 µM and 3.41 µM.
Regarding `COc1cc([C@@H]2c3cc4c(cc3[C@@H](Nc3ccc(CC(=O)N5CCCCC5)cc3)[C@H]3COC(=O)[C@H]23)OCO4)cc(OC)c1O`, the IC50 came out at 400 nM in the data set with KB, 25.8 µM in data set [1], 2.33 µM in data set [2] and 5.2 µM in the data set on A549.
On to `COc1cc([C@@H]2c3cc4c(cc3[C@@H](O[C@@H]3O[C@@H]5CO[C@@H](C)O[C@H]5[C@H](O)[C@H]3O)[C@H]3COC(=O)[C@H]23)OCO4)cc(OC)c1O` [ETOPOSIDE], for which the IC50 in the data set on KB was 4610 nM; in data set [1], 20.2 µM; in data set [2], 83.4 µM; with A549 it was 2.56 µM.
Turning to `COc1cc([C@@H]2c3cc4c(cc3[C@@H](N(C(=O)c3ccc(Cl)cc3)c3ccc(NC(=O)c5ccc(Cl)cc5)cc3)[C@H]3COC(=O)[C@H]23)OCO4)cc(OC)c1O`, the IC50 in the data set with KB is above 50000 nM; in data set [1] it was 19.6 µM; in data set [2] it was 14.2 µM; in the data set with A549, above 50 µM.
Consider `COc1cc([C@@H]2c3cc4c(cc3[C@@H](Nc3ccc(NC(=O)c5ccc([N+](=O)[O-])cc5)cc3)[C@H]3COC(=O)[C@H]23)OCO4)cc(OC)c1O`, for which the IC50 with KB was above 50000 nM; in data set [1], 3.41 µM; in data set [2], 13.7 µM; in the data set on A549 it was 11 µM.
Take `COc1cc([C@@H]2c3cc4c(cc3[C@@H](Nc3ccc(NC(=O)CCc5ccccc5)cc3)[C@H]3COC(=O)[C@H]23)OCO4)cc(OC)c1O`: the Activity in the data set with Mus musculus is given as 20.2 g; in data set [3] it was 62.4%. Also, the IC50 in the data set with KB worked out at 6880 nM; in data set [1] it was 1.15 µM; in data set [2] it was 3.7 µM; in the data set on A549 it was 3.31 µM. Also, the inhibition in vivo at 10 mg/kg in data set [4] was 9.2%.
On to `COc1cc([C@@H]2c3cc4c(cc3[C@@H](N(C(=O)c3ccc([N+](=O)[O-])cc3)c3ccc(NC(=O)c5ccc([N+](=O)[O-])cc5)cc3)[C@H]3COC(=O)[C@H]23)OCO4)cc(OC)c1O`, for which the IC50 was above 50000 nM in the data set with KB, 15.7 µM in data set [1], above 50 µM in data set [2] and above 50 µM with A549.
As to `COc1cc([C@@H]2c3cc4c(cc3[C@@H](Nc3ccc(CCN5CCCC5)cc3)[C@H]3COC(=O)[C@H]23)OCO4)cc(OC)c1O`, the IC50 in the data set with KB worked out at 210 nM; in data set [1] it was 0.036 µM; in data set [2], 1.57 µM; in the data set on A549, 0.24 µM.
For `COc1cc([C@@H]2c3cc4c(cc3[C@@H](Nc3ccc(COCCCO)cc3)[C@H]3COC(=O)[C@H]23)OCO4)cc(OC)c1O` the same measures were 6000 nM, 12 µM, 5.08 µM and 7.45 µM.
For `COc1cc([C@@H]2c3cc4c(cc3[C@@H](Nc3cccc(CCN5CCCC5)c3)[C@H]3COC(=O)[C@H]23)OCO4)cc(OC)c1O` the same measures were 390 nM, 1.17 µM, 1.85 µM and 3.91 µM.
